{
  "source": "patent US9670162B2",
  "about": "“Mitochondrial aldehyde dehyrogenase-2 modulators and methods of use thereof” (The Board of Trustees of the Leland Stanford Junior …, priority 2013, dated 2017)",
  "key": {"human ALDH2 wild type": {"target": "T1, human ALDH2 wild type (Homo sapiens, UniProt P05091)", "T1 construct": "His-tag (pTrcHis vector) (N); made in house; host or cells: E. coli BL21", "T1 sequence (P05091 18-517)": "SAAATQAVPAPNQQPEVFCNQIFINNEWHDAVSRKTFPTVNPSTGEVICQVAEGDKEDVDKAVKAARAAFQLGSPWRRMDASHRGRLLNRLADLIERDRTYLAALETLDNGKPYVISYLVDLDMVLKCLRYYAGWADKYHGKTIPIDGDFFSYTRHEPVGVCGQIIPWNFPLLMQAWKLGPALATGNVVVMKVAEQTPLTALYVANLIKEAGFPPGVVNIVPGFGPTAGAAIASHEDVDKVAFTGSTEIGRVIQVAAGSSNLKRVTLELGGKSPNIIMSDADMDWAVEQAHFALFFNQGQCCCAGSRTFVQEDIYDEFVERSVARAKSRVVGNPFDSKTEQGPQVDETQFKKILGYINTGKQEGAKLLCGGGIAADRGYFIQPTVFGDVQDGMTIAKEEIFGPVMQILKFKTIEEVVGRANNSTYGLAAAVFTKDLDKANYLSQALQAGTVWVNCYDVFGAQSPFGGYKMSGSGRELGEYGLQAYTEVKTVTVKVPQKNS", "test": "ALDH2 enzymatic assay (NADH at 340 nm), recombinant wild type enzyme", "format": "biochemical", "parameters": "key: −: no activation or inhibition; +: activation less than control 1; ++: activation similar to control 1, within 10%; +++: activation more than control 1 and less than control (compound 161); ++++: activation similar to compound 161, within 10%", "conditions": "activation relative to benchmarks control 1 and compound 161"}, "CYP3A4": {"target": "CYP3A4 (Homo sapiens, UniProt P08684)", "sequence (P08684 whole entry)": "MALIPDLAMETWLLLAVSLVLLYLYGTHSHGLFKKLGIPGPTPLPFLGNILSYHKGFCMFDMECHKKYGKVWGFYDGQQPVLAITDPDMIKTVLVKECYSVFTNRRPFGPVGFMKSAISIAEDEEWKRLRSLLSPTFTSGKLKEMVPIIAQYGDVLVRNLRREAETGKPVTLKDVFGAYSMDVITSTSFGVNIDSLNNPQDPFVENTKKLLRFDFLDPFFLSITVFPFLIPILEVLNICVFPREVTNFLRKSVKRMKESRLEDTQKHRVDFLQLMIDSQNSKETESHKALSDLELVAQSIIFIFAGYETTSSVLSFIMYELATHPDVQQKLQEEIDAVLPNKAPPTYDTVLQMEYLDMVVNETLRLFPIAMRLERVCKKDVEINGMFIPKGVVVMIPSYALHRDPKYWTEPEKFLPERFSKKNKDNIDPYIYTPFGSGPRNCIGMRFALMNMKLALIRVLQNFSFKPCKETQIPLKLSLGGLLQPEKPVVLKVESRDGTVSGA", "test": "Cyp inhibition 3A4", "format": "in vitro ADME", "parameters": "inhibition: dose or concentration left out as unconfirmed", "method": "(§1) In vitro ADMET of compounds of the present disclosure was carried out according to known methods in the art. Below are data for certain compounds of the present disclosure."}, "[1]": {"tested_on": "unpurified human liver homogenates (liver mitochondria fraction), ALDH", "test": "ALDH activity in human liver biopsy samples", "format": "biochemical", "conditions": "20 μM, acetaldehyde substrate, 750 μg protein", "method": "The study of compounds of the present disclosure on unpurified human liver homogenates was carried out according to methods known in the art. Briefly, 750 μg of the total unpurified protein from the liver mitochondria fraction was used in this assay. The kinetic increase of absorbance at λ340 nm was monitored for 15 minutes for NADH. For the first 3 minutes, the assay was carried in the absence of the substrate or AD-363 to establish the base line. As expected, no NADH production was detected. Substrate acetaldehyde was then added at the 3-min time point and the reaction monitored for the next 6 min to record the catalytic rate in the absence of an activator. Compound 161 (20 μM), was then added at the 9-min time point and the reaction monitored for the next 6 min to record the increase in catalytic rate."}, "Aqueous solubility": {"test": "Aqueous solubility", "format": "physicochemical", "method": "as §1"}, "[2]": {"test": "Plasma protein binding (PPB), human", "format": "in vitro ADME", "method": "as §1"}, "CYP2C19": {"target": "CYP2C19 (Homo sapiens, UniProt P33261)", "sequence (P33261 whole entry)": "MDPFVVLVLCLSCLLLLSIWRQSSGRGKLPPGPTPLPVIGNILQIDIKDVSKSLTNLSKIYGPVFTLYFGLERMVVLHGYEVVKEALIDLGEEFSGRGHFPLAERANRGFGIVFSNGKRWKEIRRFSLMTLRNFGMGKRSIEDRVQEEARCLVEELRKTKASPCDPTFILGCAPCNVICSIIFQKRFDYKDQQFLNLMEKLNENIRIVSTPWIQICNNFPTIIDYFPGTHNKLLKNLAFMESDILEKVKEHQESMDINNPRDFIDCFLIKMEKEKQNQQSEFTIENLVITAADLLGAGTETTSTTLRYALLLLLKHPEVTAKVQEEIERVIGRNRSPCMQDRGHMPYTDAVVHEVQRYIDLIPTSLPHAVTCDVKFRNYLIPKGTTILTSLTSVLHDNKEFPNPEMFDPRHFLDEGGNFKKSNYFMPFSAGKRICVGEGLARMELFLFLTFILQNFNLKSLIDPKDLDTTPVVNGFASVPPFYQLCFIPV", "test": "Cyp inhibition 2C19", "format": "in vitro ADME", "parameters": "inhibition: dose or concentration left out as unconfirmed", "method": "as §1"}, "RLM stability T1/2": {"test": "RLM stability T1/2", "format": "in vitro ADME", "conditions": "rat, liver microsomes", "method": "as §1"}, "[3]": {"target": "T2, human ALDH2*2 recombinant mutant enzyme (E487K) (Homo sapiens, UniProt P05091, E504K)", "T2 construct": "His-tag (pTrcHis vector) (N); made in house; host or cells: E. coli BL21", "T2 sequence (P05091 18-517 E504K)": "T1 sequence (P05091 18-517) with E487K", "test": "ALDH2 enzymatic assay (NADH at 340 nm), recombinant mutant enzyme", "format": "biochemical", "parameters": "key: −: no activation or inhibition; +: activation less than control 1; ++: activation similar to control 1, within 10%; +++: activation more than control 1 and less than control (compound 161); ++++: activation similar to compound 161, within 10%", "conditions": "activation relative to benchmarks control 1 and compound 161"}, "[4]": {"test": "Plasma protein binding (PPB), rat", "format": "in vitro ADME", "method": "as §1"}, "LogD (pH 7.4)": {"test": "LogD (pH 7.4)", "format": "physicochemical", "method": "as §1"}},
  "note": "Residue numbers refer to the chain shown, from its start.",
  "data": [
    {"smiles": "COc1ccc(CNC(=O)c2c(Cl)ccnc2OCC2CC2)cc1F", "note": "[Compound 161]", "values": [
      {"measurement": "ALDH2 (wild-type)", "setting": "human ALDH2 wild type", "value": "++++"},
      {"measurement": "inhibition", "setting": "CYP3A4", "value": 15, "unit": "%"},
      {"measurement": "inhibition at 10 µM", "setting": "CYP3A4; 10 μM", "value": 14.9, "unit": "%"},
      {"measurement": "increase of human liver enzyme's catalytic rate", "setting": "[1]", "value": 2.38, "unit": "folds"},
      {"measurement": "Aqu. Solu.", "setting": "Aqueous solubility", "value": 28, "unit": "µg/mL"},
      {"measurement": "fraction unbound", "setting": "[2]", "value": 0.007},
      {"measurement": "inhibition", "setting": "CYP2C19", "value": 16, "unit": "%"},
      {"measurement": "inhibition at 10 µM", "setting": "CYP2C19; 10 μM", "value": 15.9, "unit": "%"},
      {"measurement": "half-life", "setting": "RLM stability T1/2", "value": 58.4, "unit": "s"},
      {"measurement": "ALDH2 (mutant)", "setting": "[3]", "value": "++++"},
      {"measurement": "fraction unbound", "setting": "[4]", "value": 0.039},
      {"measurement": "logD", "setting": "LogD (pH 7.4)", "value": 3}
    ]}
  ]
}
